# Measured values from patent publication US10774051B2, “6-membered heterocyclic derivatives and pharmaceutical composition comprising the same” (Shionogi & Co., Ltd., priority 2015, dated 2020).
# Biological target: human P2X7 receptor (Homo sapiens, UniProt Q99572, R270H/Y155H)
# Assay: Evaluation of human P2X7 receptor inhibitory activity (Yo-Pro uptake, BzATP stimulation, FLIPR TETRA)
# Assay type: cell-based
# Settings: 1321N1 cells stably expressing human P2X7 receptor; BzATP stimulation, Yo-Pro uptake; read-out: IC50 (antagonistic activity for the human P2X7 receptor)
# In short: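 Yo-Pro dye uptake triggered by BzATP was monitored by FLIPR in human P2X7-transfected 1321N1 cells (SNP variant) in HEPES-buffered HBSS, pH 7.4-7.5. Compound was dispensed 8 min post-stimulation, then signal read for 20 min; IC50 derived logistically from inhibition of the fluorescence range.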
row,SMILES,IC50 [nM]
1,Cc1cc2c(cc1Nc1nc(=O)c(F)cn1Cc1ccccc1)OCCO2 [Compound I-0366],35
2,COc1cc(C)c(Nc2ncc(OC)c(=O)n2Cc2ccc(F)c(Cl)c2)cc1C [Compound I-0985],65
3,COc1cn(Cc2ccc(F)c(Cl)c2)c(Nc2cc3c(cc2C)OCC=C3)nc1=O [Compound I-0912],22
4,COc1cc(Cn2cc(OC)c(=O)nc2Nc2cccc(Cl)c2C)ccc1F [Compound I-0698],100
5,COc1cn(Cc2ccccc2)c(Nc2cccc3c2CCC3)nc1=O [Compound I-0062],590
6,COc1cn(Cc2cc(F)cc(F)c2)c(Nc2cccc(SC)c2C)nc1=O [Compound I-0550],2
7,COc1cn(Cc2cc(F)c(F)c(F)c2)c(Nc2ccc3[nH]ccc3c2C)nc1=O [Compound I-0939],4

# Same assay, conditions: 1321N1 cells stably expressing human P2X7 receptor; BzATP stimulation, Yo-Pro uptake; read-out: IC50 (antagonistic activity for the human P2X7 receptor), class symbol
row,SMILES,IC50 [nM]
1,COc1cn(Cc2ccccc2OC(F)F)c(Nc2cccc(Cl)c2C)nc1=O [Compound I-0474],< 10
2,COc1cn(Cc2ccccc2)c(Nc2cc(C)ccc2C)nc1=O [Compound I-0068],10 to 100
3,COc1cn(Cc2ccccc2)c(Nc2cc(N3CCN(C(=O)OC(C)(C)C)CC3)ccc2C)nc1=O [Compound I-0411],100 to 500
4,COc1cn(Cc2cc(F)cc(Cl)c2)c(Nc2cccc(OC(F)F)c2C)nc1=O [Compound I-0576],10 to 100
5,CCc1c(Nc2nc(=O)c(F)cn2Cc2ccc(F)cc2)cc(OC)cc1OC [Compound I-0314],< 10
6,CCc1ccc(Cl)cc1Nc1nc(=O)c(OC)cn1Cc1ccccc1 [Compound I-0175],10 to 100
7,Cc1cc(C)c(Nc2nc(=O)c(F)cn2Cc2ccc(F)cc2)cc1C [Compound I-0306],< 10
8,COc1cn(Cc2ccc(F)c(F)c2)c(Nc2cc3c(cc2C)OCCO3)nc1=O [Compound I-0291],10 to 100
9,COc1cn(Cc2cc(F)cc(Cl)c2)c(Nc2cccc(C)c2Cl)nc1=O [Compound I-0577],10 to 100
10,COc1cn(Cc2ccccc2)c(Nc2cc(C)c(F)cc2C)nc1=O [Compound I-0433],< 10
11,Cc1c(Cl)cccc1Nc1nc(=O)c(C(=O)N(C)C)cn1Cc1ccccc1 [Compound I-0100],100 to 500
12,COc1cc(C)c(Nc2nc(=O)c(OC)cn2Cc2ccc(F)c(F)c2)cc1OC [Compound I-0276],10 to 100
13,COc1cn(Cc2ccc(F)c(F)c2)c(Nc2cc(C)c(F)cc2C)nc1=O [Compound I-0503],< 10
14,Cc1c(Cl)cccc1Nc1nc(=O)c(F)cn1Cc1ccccc1 [Compound I-0010],< 10
15,COc1cn(Cc2ccc(F)c(Cl)c2)c(Nc2cc(C(C)C)ccc2C)nc1=O [Compound I-0228],10 to 100
16,CCc1cc(OC)ccc1Nc1nc(=O)c(OC)cn1Cc1ccccc1 [Compound I-0235],10 to 100
17,COc1cn(Cc2cccc(C#N)c2)c(Nc2cccc(Cl)c2C)nc1=O [Compound I-0047],500 to 1000
18,COc1cn(Cc2ccccc2Cl)c(Nc2cc(C)c(Cl)cc2C)nc1=O [Compound I-0170],100 to 500

row,SMILES,IC50 [nM]
1,COc1cn(Cc2ccccc2)c(Nc2ccc(Cl)cc2C)nc1=O [Compound I-0072],10 to 100
2,CCc1c(Nc2nc(=O)c(F)cn2Cc2ccc(F)c(Cl)c2)cc(OC)cc1OC [Compound I-0316],< 10
3,CCOc1cc(C)c(Nc2nc(=O)c(OC)cn2Cc2ccccc2)cc1C [Compound I-0206],10 to 100
4,COc1cn(Cc2ccc(F)c(Cl)c2)c(Nc2cc(C)c(F)cc2C)nc1=O [Compound I-0507],< 10
5,COc1cn(Cc2ccc(F)c(Cl)c2)c(Nc2cccc3[nH]c(C)cc23)nc1=O [Compound I-0489],< 10
6,CCc1ccc(F)cc1Nc1nc(=O)c(OC)cn1Cc1cccc(Cl)c1 [Compound I-0566],10 to 100
7,COc1cn(Cc2cc(F)cc(F)c2)c(Nc2cc(OC(C)C)ccc2C)nc1=O [Compound I-0556],10 to 100
8,CCc1ccccc1CNc1nc(=O)c(OC)cn1Cc1ccccc1 [Compound I-0114],100 to 500
9,CCc1ccccc1Nc1nc(=O)c(OC)cn1Cc1ccc(Cl)c(F)c1 [Compound I-0225],100 to 500
10,COc1cn(Cc2ccccc2F)c(Nc2cccc(Cl)c2C)nc1=O [Compound I-0040],10 to 100
11,COc1cc(Nc2nc(=O)c(OC)cn2Cc2cc(F)cc(F)c2)c(C)cc1Cl [Compound I-0510],< 10
12,CCc1ccc(OC)cc1Nc1nc(=O)c(OC)cn1Cc1ccc(F)cc1 [Compound I-0253],10 to 100
13,CNC(=O)Cc1cn(Cc2ccccc2)c(Nc2cccc(Cl)c2C)nc1=O [Compound I-0330],100 to 500
14,COc1cn(Cc2ccccc2)c(Nc2cccc3occc23)nc1=O [Compound I-0103],100 to 500
15,COc1cn(Cc2ccc(F)c(Cl)c2)c(Nc2cc3c(cc2C)OCCO3)nc1=O [Compound I-0292],10 to 100
16,CCc1cc(OC)c(OC)cc1Nc1nc(=O)c(F)cn1Cc1cccc(Cl)c1 [Compound I-0350],< 10
17,COc1cn(Cc2ccccc2)c(NCc2ccccc2C)nc1=O [Compound I-0102],100 to 500
18,COc1cc(C)c(Nc2nc(=O)c(OC)cn2Cc2ccc(F)c(Cl)c2)cc1OC [Compound I-0229],< 10

# Same assay, conditions: antagonistic activity for the human P2X7 receptor; read-out: IC50
row,SMILES,IC50 [nM]
1,COc1ccc(C)c(Nc2nc(=O)c(C#N)cn2Cc2cc(F)c(F)c(F)c2)c1 [Compound I-1151],10 to 100
2,Cc1ccc(S(C)(=O)=O)cc1Nc1nc(=O)ccn1Cc1cc(F)c(F)c(F)c1 [Compound I-1134],10 to 100
3,Cc1cc2c(cc1Nc1nc(=O)c(CCO)cn1Cc1cc(F)c(F)c(F)c1)COC2 [Compound I-1127],10 to 100
4,COc1ccc(Nc2nc(=O)cnn2Cc2ccc(Cl)c(F)c2)c(C)c1 [Compound I-1268],10 to 100
5,COc1cn(Cc2ccc(F)c(Cl)c2)c(Nc2cc(Cl)ccc2C)nc1=O [Compound I-0594],10 to 100
6,COc1cc(Cl)c(Nc2nc(=O)c(F)cn2Cc2cc(F)c(F)c(F)c2)cc1F [Compound I-1239],< 10
7,CCc1cc(Br)ccc1Nc1nc(=O)c(OC)cn1Cc1cc(F)cc(F)c1 [Compound I-0630],< 10
8,C=C(C)c1ccc(C)c(Nc2nc(=O)c(OC)cn2Cc2cc(F)cc(Cl)c2)c1 [Compound I-0748],10 to 100
9,COc1cn(Cc2cc(F)cc(F)c2)c(Nc2cc(-c3cscn3)ccc2C)nc1=O [Compound I-0753],< 10
10,COCc1ccc(C)c(Nc2nc(=O)c(F)cn2Cc2cc(F)c(F)c(F)c2)c1 [Compound I-1086],< 10
11,Cc1ccc(CF)cc1Nc1nc(=O)c(F)cn1Cc1cc(F)c(F)c(F)c1 [Compound I-1231],< 10
12,COc1cc(C)c(Nc2c(Cl)c(=O)c(OC)cn2Cc2ccc(F)c(Cl)c2)cc1C [Compound I-0964],100 to 500
13,Cc1cc(F)c(C)c(Nc2nc(=O)c(F)cn2Cc2cc(F)c(F)c(F)c2)c1 [Compound I-1244],< 10
14,Cc1cc2[nH]ncc2cc1Nc1nc(=O)c(F)cn1Cc1cc(F)cc(F)c1 [Compound I-1092],10 to 100
15,Cc1cc(Nc2nc(=O)c(F)cn2Cc2cc(F)cc(F)c2)c(C)nc1OC(F)F [Compound I-1234],< 10
16,COc1cn(Cc2cc(F)c(F)c(F)c2)c(Nc2cc3nc(C)sc3cc2C)nc1=O [Compound I-0760],10 to 100
17,COc1cn(Cc2ccc(F)c(Cl)c2)c(Nc2cc3[nH]ccc3cc2C)nc1=O [Compound I-0619],< 10
18,COc1cn(Cc2ccc(F)cc2)c(Nc2cc(Oc3ccccn3)ccc2C)nc1=O [Compound I-0898],10 to 100

row,SMILES,IC50 [nM]
1,COc1cn(Cc2ccc(F)c(Cl)c2)c(Nc2cc(-c3cccn(C)c3=O)c(F)cc2C)nc1=O [Compound I-0591],10 to 100
2,Cc1ccc(-c2ncco2)cc1Nc1nc(=O)c(Cl)cn1Cc1ccc(F)c(F)c1 [Compound I-0853],< 10
3,CCOC(=O)c1cn(Cc2cc(F)c(F)c(F)c2)c(Nc2cc(OC)c(F)cc2C)nc1=O [Compound I-1122],10 to 100
4,COc1cc(Nc2nc(=O)c(F)cn2Cc2ccc(F)c(F)c2)c(C)cc1F [Compound I-1052],< 10
5,COc1cn(Cc2ccc(F)c(Cl)c2)c(Nc2cc(-c3ccccc3)ccc2C)nc1=O [Compound I-0828],10 to 100
6,COc1cc(C)c(Nc2nc(=O)c(CF)nn2Cc2cc(F)c(F)c(F)c2)cc1OC [Compound I-1248],10 to 100
7,Cc1cc(N(C)C)ccc1Nc1nc(=O)c(F)cn1Cc1cc(F)c(F)c(F)c1 [Compound I-1242],< 10
8,COc1ccc(Nc2nc(=O)cnn2Cc2cc(F)c(F)c(F)c2)c(C)c1 [Compound I-1283],< 10
9,CCc1ccc(OC)cc1Nc1nc(=O)c(OC)cn1Cc1cc(F)cc(F)c1 [Compound I-0637],< 10
10,COc1cn(Cc2cc(F)cc(Cl)c2)c(Nc2cc(S(C)(=O)=O)cc(C)c2C)nc1=O [Compound I-0757],10 to 100
11,Cc1nc2cc(C)c(Nc3nc(=NC#N)c(F)cn3Cc3cc(F)c(F)c(F)c3)cc2s1 [Compound I-1286],< 10
12,COc1cn(Cc2ccccc2)c(Nc2cc(OC(F)F)c(C)cc2C)nc1=O [Compound I-0875],10 to 100
13,COc1cn(Cc2ccccc2)c(Nc2cc(C)c(OC(F)(F)F)cc2C)nc1=O [Compound I-0922],< 10
14,Cc1cc(OC(F)F)c(C)cc1Nc1nc(=O)c(F)cn1Cc1cc(F)c(F)c(F)c1 [Compound I-1210],< 10
15,COc1cn(Cc2cc(F)cc(F)c2)c(Nc2cc3nc(C)sc3cc2C)nc1=O [Compound I-0745],100 to 500
16,COCc1cn(Cc2cc(F)c(F)c(F)c2)c(Nc2cc(OCCO)ccc2C)nc1=O [Compound I-1125],10 to 100
17,COc1cn(Cc2ccccc2)c(Nc2cc(OC(F)F)ccc2C)nc1=O [Compound I-0870],10 to 100
18,COc1cn(Cc2cc(F)c(F)c(F)c2)c(Nc2cc3cc[nH]c3cc2C)nc1=O [Compound I-0938],< 10
